Reference: the supplement of paper PMC10307832

Experiments:
Test in all cases: relative viability (nuclei count vs DMSO), 5 days (fraction); higher = more cells survive
[1] = compound: CCOc1cc2ncc(C#N)c(Nc3ccc(OCc4ccccn4)c(Cl)c3)c2cc1NC(=O)/C=C/CN(C)C [Neratinib]
How it was run: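 Lung cancer cell lines in 1536-well plates were kept overnight at 37 °C, then pinned with five library-drug doses (not always all listed) spaced by √10 on vehicle-anchored plates. After 5 days without medium change, cells were fixed, permeabilised and Hoechst-stained in one step, imaged at 4×, and nuclei were counted with MetaXpress. Viability is treated-well nuclei divided by vehicle-well nuclei, taken as the median over plates. Plates passed only with control CV below 25% and at least one doubling.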

[2] = compound: CCOc1cc2ncc(C#N)c(Nc3ccc(OCc4ccccn4)c(Cl)c3)c2cc1NC(=O)/C=C/CN(C)C [Neratinib] + CC1(C)CCC(c2ccc(Cl)cc2)=C(CN2CCN(c3ccc(C(=O)NS(=O)(=O)c4ccc(N[C@H](CCN5CCOCC5)CSc5ccccc5)c(S(=O)(=O)C(F)(F)F)c4)cc3)CC2)C1 [Navitoclax] (partner 0.5 µM)
How it was run: (§1)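 Values are medians from duplicate plates. Each reflects relative viability, defined as the nuclei count of treated wells over that of vehicle wells. Lung cancer cell lines in 1536-well plates were pin-tool dosed one day after seeding with one drug alone or with a fixed anchor-drug dose plus five library-drug doses (not always all listed) in √10 steps, then fixed, stained and imaged at 4× after 5 days.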

[3] = compound: CCOc1cc2ncc(C#N)c(Nc3ccc(OCc4ccccn4)c(Cl)c3)c2cc1NC(=O)/C=C/CN(C)C [Neratinib] + Cc1cc(Nc2cc(N3CCN(C)CC3)nc(Sc3ccc(NC(=O)C4CC4)cc3)n2)n[nH]1 [Tozasertib] (partner 0.1 µM)
How it was run: as §1

[4] = compound: CCOc1cc2ncc(C#N)c(Nc3ccc(OCc4ccccn4)c(Cl)c3)c2cc1NC(=O)/C=C/CN(C)C [Neratinib] + N=C(N)NC(=N)NCCc1ccccc1 [Phenformin] (partner 250 µM)
How it was run: as §1

| Cell Line | relative viability ([1]; 0.01 µM) | relative viability ([1]; 0.03162 µM) | relative viability ([1]; 0.1 µM) | relative viability ([1]; 0.3162 µM) | relative viability ([1]; 1 µM) | relative viability ([2]; first compound 0.01 µM) | relative viability ([2]; first compound 0.03162 µM) | relative viability ([2]; first compound 0.1 µM) | relative viability ([2]; first compound 0.3162 µM) | relative viability ([2]; first compound 1 µM) | relative viability ([3]; first compound 0.01 µM) | relative viability ([3]; first compound 0.03162 µM) | relative viability ([3]; first compound 0.1 µM) | relative viability ([3]; first compound 0.3162 µM) | relative viability ([3]; first compound 1 µM) | relative viability ([4]; first compound 0.01 µM) | relative viability ([4]; first compound 0.03162 µM) | relative viability ([4]; first compound 0.1 µM) | relative viability ([4]; first compound 0.3162 µM) | relative viability ([4]; first compound 1 µM) |
| --- | --- | --- | --- | --- | --- | --- | --- | --- | --- | --- | --- | --- | --- | --- | --- | --- | --- | --- | --- | --- |
| NCI-H2405 | 1.06 | 1.07 | 0.989 | 0.98 | 0.739 | 0.904 | 0.887 | 0.784 | 0.785 | 0.188 | 0.808 | 0.852 | 0.712 | 0.72 | 0.547 | 0.421 | 0.393 | 0.414 | 0.33 | 0.359 |
| NCI-H3122 |  | 1.02 | 0.931 | 0.991 | 0.5 | 1.05 | 1.02 | 1.05 | 1.03 | 0.407 | 0.437 | 0.422 | 0.388 | 0.375 | 0.135 | 0.366 | 0.407 | 0.317 | 0.35 | 0.187 |
| PC-3 [JPC-3] | 1.07 | 1.12 | 0.947 | 0.687 | 0.471 | 0.731 | 0.826 | 0.784 | 0.624 | 0.333 | 0.891 | 0.922 | 0.822 | 0.773 | 0.406 | 0.459 | 0.497 | 0.432 | 0.365 | 0.336 |
| PC-14 | 1.1 | 1.13 | 0.964 | 0.732 | 0.211 | 0.988 | 1.01 | 0.928 | 0.936 | 0.24 | 0.574 | 0.721 | 0.627 | 0.454 | 0.0727 | 0.602 | 0.764 | 0.655 | 0.267 | 0.186 |
| RERF-LC-KJ | 1 | 0.998 | 0.86 | 0.806 | 0.556 | 0.854 | 1.07 | 0.724 | 0.69 | 0.493 | 0.553 | 0.593 | 0.586 | 0.5 | 0.293 | 0.427 | 0.405 | 0.385 | 0.318 | 0.353 |
| SK-LU-1 | 1.1 | 1.2 |  | 0.979 | 0.46 | 0.842 | 0.979 |  | 0.0386 | 0.523 | 0.292 | 0.305 | 0.277 | 0.294 | 0.227 | 0.584 | 0.515 | 0.521 | 0.381 | 0.25 |
| SK-MES-1 | 1.06 | 1.09 | 0.91 | 0.463 | 0.298 | 1.38 | 1.3 | 1.06 | 0.651 | 0.432 | 0.947 | 0.996 | 0.955 | 0.631 | 0.21 | 0.675 | 0.706 | 0.665 | 0.285 | 0.2 |
| SW 1573 | 1.09 | 1.18 | 0.828 | 0.912 | 0.716 | 1.32 | 1.15 | 0.862 | 0.87 | 0.804 | 0.203 | 0.152 | 0.194 | 0.177 | 0.122 | 0.431 | 0.466 | 0.384 | 0.311 | 0.185 |
| UMC-11 | 0.901 | 1.14 | 0.748 | 0.898 | 0.832 | 0.283 | 0.332 | 0.264 | 0.316 | 0.252 | 0.198 | 0.2 | 0.216 | 0.179 | 0.185 | 0.333 | 0.328 | 0.32 | 0.293 | 0.275 |
